Consider 2 compounds from publication PMC8213057, “Targeting ALK2: An Open Science Approach to Developing Therapeutics for the Treatment of Diffuse Intrinsic Pontine Glioma” (Journal of Medicinal Chemistry, 2020).

One experiment has as its target SGK2 (Homo sapiens, UniProt Q9HBY8). Put plainly: biochemical. Particulars: read-out: % enzyme activity, 1 μM; Run 1, Run 2.
For the next experiment, the target named is PAK4 (Homo sapiens, UniProt O96013). Particulars: 1 μM; Run 1, Run 2.
The target in another experiment is NEK7 (Homo sapiens, UniProt Q8TDX7). As to conditions: 1 μM; Run 1, Run 2.
Sequence of NEK7 (Q8TDX7 whole entry): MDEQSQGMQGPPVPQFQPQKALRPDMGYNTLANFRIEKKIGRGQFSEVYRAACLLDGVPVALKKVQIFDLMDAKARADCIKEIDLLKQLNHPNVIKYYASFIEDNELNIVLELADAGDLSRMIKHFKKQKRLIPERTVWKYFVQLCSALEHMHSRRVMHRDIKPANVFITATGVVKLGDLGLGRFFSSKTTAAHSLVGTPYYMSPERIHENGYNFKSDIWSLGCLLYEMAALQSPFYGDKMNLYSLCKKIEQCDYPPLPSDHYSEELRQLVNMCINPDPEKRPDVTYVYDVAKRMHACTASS
For a further experiment, the target named is c-MET (Homo sapiens, UniProt P08581). As to conditions: 1 μM; Run 1, Run 2.
Sequence of c-MET (P08581 25-1390): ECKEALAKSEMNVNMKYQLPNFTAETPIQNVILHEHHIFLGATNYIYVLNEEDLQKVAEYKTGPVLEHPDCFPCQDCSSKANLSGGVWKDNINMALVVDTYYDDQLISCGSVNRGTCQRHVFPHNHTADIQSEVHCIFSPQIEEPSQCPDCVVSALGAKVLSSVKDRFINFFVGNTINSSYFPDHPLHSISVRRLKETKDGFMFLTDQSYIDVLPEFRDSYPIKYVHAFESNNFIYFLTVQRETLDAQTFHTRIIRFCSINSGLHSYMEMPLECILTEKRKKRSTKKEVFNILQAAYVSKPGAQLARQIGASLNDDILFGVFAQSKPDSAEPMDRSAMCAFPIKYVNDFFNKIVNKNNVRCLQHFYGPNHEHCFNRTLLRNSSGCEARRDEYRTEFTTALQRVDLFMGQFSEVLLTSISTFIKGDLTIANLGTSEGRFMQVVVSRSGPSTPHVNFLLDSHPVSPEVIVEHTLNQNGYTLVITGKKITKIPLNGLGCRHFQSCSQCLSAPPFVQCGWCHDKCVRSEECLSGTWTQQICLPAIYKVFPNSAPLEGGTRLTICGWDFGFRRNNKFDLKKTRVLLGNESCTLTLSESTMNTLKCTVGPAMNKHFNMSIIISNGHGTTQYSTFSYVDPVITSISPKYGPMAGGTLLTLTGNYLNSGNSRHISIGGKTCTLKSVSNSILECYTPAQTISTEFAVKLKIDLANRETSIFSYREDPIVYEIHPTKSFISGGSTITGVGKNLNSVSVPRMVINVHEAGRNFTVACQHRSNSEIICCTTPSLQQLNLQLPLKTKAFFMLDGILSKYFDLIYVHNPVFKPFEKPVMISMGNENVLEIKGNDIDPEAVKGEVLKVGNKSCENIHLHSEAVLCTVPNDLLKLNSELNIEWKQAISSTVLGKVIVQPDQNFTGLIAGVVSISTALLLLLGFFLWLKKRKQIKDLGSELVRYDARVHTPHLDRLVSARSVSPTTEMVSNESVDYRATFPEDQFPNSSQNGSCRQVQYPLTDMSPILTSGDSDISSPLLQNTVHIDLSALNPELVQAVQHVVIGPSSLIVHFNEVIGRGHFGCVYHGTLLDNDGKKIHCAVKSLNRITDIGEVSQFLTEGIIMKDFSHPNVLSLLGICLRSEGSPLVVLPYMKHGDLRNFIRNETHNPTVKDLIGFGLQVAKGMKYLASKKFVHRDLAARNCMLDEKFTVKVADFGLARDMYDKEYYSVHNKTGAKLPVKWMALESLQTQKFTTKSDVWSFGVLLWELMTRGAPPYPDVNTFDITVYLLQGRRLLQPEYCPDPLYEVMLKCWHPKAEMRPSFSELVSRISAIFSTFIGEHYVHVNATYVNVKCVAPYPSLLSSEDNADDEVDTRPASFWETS
The next experiment concerns the target CK1a1 (Homo sapiens, UniProt P48729). The experiment in a line: biochemical. Particulars: read-out: % enzyme activity, 1 μM; Run 1, Run 2.
Another experiment addresses DAPK1 (Homo sapiens, UniProt P53355). Particulars: 1 μM; Run 1, Run 2.
Another experiment has as its target SLK/STK2 (Homo sapiens, UniProt Q9H2G2). Particulars: 1 μM; Run 1, Run 2.
In the next experiment the target is T1, LATS1 (Homo sapiens, UniProt O95835).
T1 sequence (O95835 1-1130): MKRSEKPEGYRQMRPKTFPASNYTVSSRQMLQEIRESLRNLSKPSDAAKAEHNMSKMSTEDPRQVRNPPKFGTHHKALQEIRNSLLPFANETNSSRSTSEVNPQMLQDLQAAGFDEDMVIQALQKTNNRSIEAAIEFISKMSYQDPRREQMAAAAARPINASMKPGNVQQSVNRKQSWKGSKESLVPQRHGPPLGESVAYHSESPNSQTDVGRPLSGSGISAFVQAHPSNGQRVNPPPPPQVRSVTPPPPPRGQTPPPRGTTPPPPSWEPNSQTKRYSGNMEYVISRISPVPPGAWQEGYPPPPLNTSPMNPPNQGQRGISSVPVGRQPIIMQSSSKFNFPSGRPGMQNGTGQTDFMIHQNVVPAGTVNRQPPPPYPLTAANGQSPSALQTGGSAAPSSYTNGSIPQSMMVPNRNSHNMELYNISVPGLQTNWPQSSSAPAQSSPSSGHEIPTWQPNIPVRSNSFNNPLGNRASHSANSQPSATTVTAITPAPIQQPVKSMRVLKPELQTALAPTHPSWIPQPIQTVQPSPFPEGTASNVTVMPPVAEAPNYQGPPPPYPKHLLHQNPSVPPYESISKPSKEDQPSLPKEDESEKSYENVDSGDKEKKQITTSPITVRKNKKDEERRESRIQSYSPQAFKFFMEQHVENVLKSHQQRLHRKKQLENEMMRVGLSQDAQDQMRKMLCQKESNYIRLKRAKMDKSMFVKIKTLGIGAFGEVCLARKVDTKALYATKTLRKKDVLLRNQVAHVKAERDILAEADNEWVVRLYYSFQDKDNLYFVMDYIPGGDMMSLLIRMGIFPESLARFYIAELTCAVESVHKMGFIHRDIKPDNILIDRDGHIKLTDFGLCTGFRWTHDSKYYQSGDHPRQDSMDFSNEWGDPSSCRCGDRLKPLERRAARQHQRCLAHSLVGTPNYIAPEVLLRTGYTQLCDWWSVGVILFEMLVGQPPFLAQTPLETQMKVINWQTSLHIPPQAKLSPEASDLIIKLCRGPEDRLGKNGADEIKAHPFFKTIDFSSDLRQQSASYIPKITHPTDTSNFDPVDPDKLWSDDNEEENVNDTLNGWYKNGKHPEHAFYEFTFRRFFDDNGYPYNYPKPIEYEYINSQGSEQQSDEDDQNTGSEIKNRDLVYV
As to conditions: 1 μM; Run 1, Run 2.

A further experiment has as its target DYRK1B (Homo sapiens, UniProt Q9Y463). Put plainly: biochemical. As to conditions: read-out: % enzyme activity, 1 μM; Run 1, Run 2.
Another experiment concerns the target T2, MST2/STK3 (Homo sapiens, UniProt Q13188).
T2 sequence (Q13188 1-491): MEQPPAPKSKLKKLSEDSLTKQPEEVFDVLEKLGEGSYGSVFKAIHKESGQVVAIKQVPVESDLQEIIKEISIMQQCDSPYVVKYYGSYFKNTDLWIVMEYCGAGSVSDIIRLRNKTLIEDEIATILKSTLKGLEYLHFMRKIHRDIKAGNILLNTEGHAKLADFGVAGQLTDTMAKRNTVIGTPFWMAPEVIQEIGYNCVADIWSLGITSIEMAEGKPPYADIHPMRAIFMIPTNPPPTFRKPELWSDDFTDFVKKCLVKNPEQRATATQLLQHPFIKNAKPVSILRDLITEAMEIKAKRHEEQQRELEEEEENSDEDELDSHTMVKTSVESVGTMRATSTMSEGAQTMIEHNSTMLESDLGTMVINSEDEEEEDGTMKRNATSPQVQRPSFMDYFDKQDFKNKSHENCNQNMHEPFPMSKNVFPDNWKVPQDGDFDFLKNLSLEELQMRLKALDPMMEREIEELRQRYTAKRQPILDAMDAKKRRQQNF
As to conditions: 1 μM; Run 1, Run 2.

Another experiment addresses CDK14/cyclin Y (PFTK1) (Homo sapiens, UniProt O94921). Particulars: 1 μM; Run 1, Run 2.

Sequence of SLK/STK2 (Q9H2G2 whole entry): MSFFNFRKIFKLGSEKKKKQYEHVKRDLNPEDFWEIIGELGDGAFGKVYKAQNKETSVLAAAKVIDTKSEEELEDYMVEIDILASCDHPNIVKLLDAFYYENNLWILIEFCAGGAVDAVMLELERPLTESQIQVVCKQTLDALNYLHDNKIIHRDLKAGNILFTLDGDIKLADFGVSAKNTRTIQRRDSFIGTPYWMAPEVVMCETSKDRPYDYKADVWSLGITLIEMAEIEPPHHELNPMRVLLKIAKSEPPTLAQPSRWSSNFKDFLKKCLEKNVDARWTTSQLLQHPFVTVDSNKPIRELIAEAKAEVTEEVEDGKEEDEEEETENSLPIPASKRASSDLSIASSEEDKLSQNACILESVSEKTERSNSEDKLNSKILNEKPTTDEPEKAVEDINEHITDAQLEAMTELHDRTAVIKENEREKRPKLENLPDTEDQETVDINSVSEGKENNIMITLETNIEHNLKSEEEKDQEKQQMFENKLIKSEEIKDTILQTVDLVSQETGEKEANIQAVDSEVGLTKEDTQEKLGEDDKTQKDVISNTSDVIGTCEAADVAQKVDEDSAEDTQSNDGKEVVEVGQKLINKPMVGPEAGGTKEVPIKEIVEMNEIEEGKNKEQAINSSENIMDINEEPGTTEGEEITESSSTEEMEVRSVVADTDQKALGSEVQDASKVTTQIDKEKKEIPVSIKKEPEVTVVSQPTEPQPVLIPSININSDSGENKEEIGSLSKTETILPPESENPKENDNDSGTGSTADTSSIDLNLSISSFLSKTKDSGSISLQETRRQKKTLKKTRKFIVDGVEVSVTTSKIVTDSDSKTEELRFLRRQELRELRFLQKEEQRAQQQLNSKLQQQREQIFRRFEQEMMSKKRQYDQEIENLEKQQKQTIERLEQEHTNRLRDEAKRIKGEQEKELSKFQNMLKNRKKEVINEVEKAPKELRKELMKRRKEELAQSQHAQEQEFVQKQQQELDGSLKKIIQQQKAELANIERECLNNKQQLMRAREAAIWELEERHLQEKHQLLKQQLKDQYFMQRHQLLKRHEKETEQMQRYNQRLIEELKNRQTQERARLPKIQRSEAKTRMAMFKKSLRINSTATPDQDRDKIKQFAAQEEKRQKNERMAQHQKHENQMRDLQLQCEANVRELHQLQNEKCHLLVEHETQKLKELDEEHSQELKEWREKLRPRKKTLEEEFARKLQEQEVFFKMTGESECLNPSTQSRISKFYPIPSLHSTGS
Sequence of SGK2 (Q9HBY8 whole entry): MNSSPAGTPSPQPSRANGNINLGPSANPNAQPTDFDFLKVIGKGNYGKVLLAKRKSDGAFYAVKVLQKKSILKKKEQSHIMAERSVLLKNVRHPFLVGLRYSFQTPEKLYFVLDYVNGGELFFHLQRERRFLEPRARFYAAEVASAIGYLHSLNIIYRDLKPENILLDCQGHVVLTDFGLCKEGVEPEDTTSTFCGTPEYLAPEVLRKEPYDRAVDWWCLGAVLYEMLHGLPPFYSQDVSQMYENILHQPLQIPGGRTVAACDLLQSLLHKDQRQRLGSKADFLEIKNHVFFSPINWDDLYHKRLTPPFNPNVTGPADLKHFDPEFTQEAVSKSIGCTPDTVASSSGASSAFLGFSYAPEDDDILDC
Sequence of DAPK1 (P53355 whole entry): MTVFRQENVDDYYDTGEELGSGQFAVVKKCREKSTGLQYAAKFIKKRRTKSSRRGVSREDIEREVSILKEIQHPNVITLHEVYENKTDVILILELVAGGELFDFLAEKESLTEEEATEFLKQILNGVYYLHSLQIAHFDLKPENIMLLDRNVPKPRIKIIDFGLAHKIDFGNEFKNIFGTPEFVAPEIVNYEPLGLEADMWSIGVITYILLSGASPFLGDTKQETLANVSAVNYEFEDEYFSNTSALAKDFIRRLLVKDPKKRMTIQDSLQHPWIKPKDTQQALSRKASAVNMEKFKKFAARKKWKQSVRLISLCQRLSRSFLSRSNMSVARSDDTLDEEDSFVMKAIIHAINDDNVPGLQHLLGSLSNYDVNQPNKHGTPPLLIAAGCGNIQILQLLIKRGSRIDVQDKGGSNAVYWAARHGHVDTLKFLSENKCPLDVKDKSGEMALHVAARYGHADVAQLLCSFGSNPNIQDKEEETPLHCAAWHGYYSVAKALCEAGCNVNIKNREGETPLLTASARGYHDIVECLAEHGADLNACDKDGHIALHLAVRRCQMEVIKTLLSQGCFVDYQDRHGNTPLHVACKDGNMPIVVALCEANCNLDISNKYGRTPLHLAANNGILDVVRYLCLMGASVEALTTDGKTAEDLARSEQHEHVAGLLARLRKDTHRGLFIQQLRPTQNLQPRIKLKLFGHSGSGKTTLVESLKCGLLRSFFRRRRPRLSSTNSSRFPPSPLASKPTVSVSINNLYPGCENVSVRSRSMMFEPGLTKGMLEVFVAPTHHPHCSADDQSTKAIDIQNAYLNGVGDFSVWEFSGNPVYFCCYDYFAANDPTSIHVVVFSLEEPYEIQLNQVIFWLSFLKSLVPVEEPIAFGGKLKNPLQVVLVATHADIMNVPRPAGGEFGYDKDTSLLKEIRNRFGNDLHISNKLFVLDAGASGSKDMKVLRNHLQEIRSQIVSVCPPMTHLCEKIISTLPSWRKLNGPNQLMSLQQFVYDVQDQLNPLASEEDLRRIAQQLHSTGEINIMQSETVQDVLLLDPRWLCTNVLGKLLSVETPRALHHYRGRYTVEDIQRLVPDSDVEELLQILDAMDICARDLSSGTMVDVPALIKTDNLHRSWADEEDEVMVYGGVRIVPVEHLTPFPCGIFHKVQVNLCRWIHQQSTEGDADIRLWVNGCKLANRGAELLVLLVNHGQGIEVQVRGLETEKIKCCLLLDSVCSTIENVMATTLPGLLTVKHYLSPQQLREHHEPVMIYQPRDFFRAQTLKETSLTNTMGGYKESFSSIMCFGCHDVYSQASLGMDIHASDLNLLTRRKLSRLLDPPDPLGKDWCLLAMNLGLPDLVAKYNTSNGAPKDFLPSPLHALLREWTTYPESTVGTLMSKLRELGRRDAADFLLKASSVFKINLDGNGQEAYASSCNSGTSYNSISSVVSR
Sequence of CK1a1 (P48729 whole entry): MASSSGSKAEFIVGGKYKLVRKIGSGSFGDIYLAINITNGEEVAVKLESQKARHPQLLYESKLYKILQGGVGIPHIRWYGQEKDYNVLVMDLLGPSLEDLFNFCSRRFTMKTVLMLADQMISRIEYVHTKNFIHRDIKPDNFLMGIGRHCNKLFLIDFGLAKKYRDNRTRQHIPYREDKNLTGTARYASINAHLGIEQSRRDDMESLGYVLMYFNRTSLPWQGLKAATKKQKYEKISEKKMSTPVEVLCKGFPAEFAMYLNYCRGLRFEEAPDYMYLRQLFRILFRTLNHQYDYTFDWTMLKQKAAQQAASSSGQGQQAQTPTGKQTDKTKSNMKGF

With `COc1cc(-c2cncc(-c3ccc(N4CCN(C)CC4)cc3)c2C)cc(F)c1C(N)=O` [Compound 26a, 2-Fluoro-6-methoxy-4-(4-methyl-5-(4-(4-methylpiperazin-1-yl)phenyl)pyridin-3-yl)benzamide], the values for the remaining activity at 1 µM on SGK2, at CK1a1 and at DYRK1B were 102%, 96.1% and 40.6%, respectively. Also, the “% enzyme activity” value on PAK4 turned out to be 98.21%; on NEK7 it was 96.68%; at c-MET, 98.28%; on DAPK1 it was 94.56%; at SLK/STK2 it was 96.16%; at LATS1, 97.31%. Besides, the entries for the “% enzyme activity” value on MST2/STK3 and on CDK14/cyclin Y (PFTK1) were 93.91% and 98.24%, respectively.
As for `COc1cc(-c2cncc(-c3ccc(N4C[C@@H](C)N(C)[C@@H](C)C4)cc3)c2C)cc(F)c1C(N)=O` [Compound 26c, 2-Fluoro-6-methoxy-4-(4-methyl-5-(4-((3R,5S)-3,4,5-trimethylpiperazin-1-yl)phenyl)pyridin-3-yl)benzamide], the remaining activity at 1 µM at SGK2 was 103%; at CK1a1, 100%; at DYRK1B, 59.2%. The “% enzyme activity” value amounted to 98.82% on PAK4; 97.32% on NEK7; 106.76% on c-MET; 96.25% at DAPK1; 100.64% on SLK/STK2; 100.53% on LATS1. For the same compound, the “% enzyme activity” value on MST2/STK3 amounted to 100.46%; at CDK14/cyclin Y (PFTK1), 99.61%.
